Structures are written as SMILES.

The target in the first test is Escherichia coli DNA gyrase A/B tetramer (Escherichia coli (strain K12), UniProt P0AES4+P0AES6). Nature of the test: DNA gyrase supercoiling activity fluorescence polarisation assay. The format is biochemical.
Conditions: not given
The method, boiled down:
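Supercoiling reactions quenched with 40 nM 5′-BODIPY-FL triplex-forming oligonucleotide probe in pH 3.5 NaCl/sodium acetate buffer; after 60 min, fluorescence anisotropy read (ex 485/em 535 nm). IC50 by nonlinear regression, normalised to 0.8% DMSO (100% activity) and 5 μM ciprofloxacin (0% activity).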
(In general: Polarisation of emitted light reports the rotation of a fluorescent probe.)
By IC50 is commonly meant the concentration needed to halve the response being measured. On to `C[C@@H]1CN2c3c(cc4c(CO)noc4c3F)CC3(C(=O)NC(=O)NC3=O)[C@H]2[C@H](C)O1` (relative stereo) [Example 185, (2R,4S,4aS)-rel-11-fluoro-8-(hydroxymethyl)-2,4-dimethyl-2,4,4a,6-tetrahydro-1H,1′H-spiro[isoxazolo[4,5-g][1,4]oxazino[4,3-a]quinoline-5,5′-pyrimidine]-2′,4′,6′(3′H)-trione], for which it took 1400 nM to reach half-maximal inhibition (IC50).

The same test, now with this note: 5 nM enzyme, relaxed plasmid, 0.3 mM ATP, ambient temperature; read-out: E. coli DNA gyrase supercoiling IC50.
For the compound `C[C@@H]1CN2c3c(cc4c(S(C)(=O)=O)noc4c3F)CC3(C(=O)NC(=O)NC3=O)[C@H]2[C@H](C)O1` (relative stereo) [Example 182, (2R,4S,4aS)-rel-11-fluoro-2,4-dimethyl-8-(methylsulfonyl)-1,2,4,4a-tetrahydro-2′H,6H-spiro[1,4-oxazino[4,3-a][1,2]oxazolo[4,5-g]quinoline-5,5′-pyrimidine]-2′,4′,6′(1′H,3′H)-trione], the half-maximal inhibitory concentration (IC50) came to 2400 nM.

Consider `C[C@@H]1CN2c3c(cc4c(C#N)noc4c3F)CC3(C(=O)NC(=O)NC3=O)[C@H]2[C@H](C)O1` (relative stereo) [Example 183, (2R,4S,4aS)-rel-11-fluoro-2,4-dimethyl-2′,4′,6′-trioxo-1,1′,2,3′,4,4′,4a,6′-octahydro-2′H,6H-spiro[1,4-oxazino[4,3-a][1,2]oxazolo[4,5-g]quinoline-5,5′-pyrimidine]-8-carbonitrile], for which the IC50 is 12000 nM.

On to `C[C@@H]1CN2c3c(cc4c(-n5cc(C(=O)O)cn5)noc4c3F)CC3(C(=O)NC(=O)NC3=O)[C@H]2[C@H](C)O1` (relative stereo) [Example 186, 1-[(2R,4S,4aS)-rel-11-fluoro-2,4-dimethyl-2′,4′,6′-trioxo-1,1′,2,3′,4,4′,4a,6′-octahydro-2′H,6H-spiro[1,4-oxazino[4,3-a][1,2]oxazolo[4,5-g]quinoline-5,5′-pyrimidin]-8-yl]-1H-pyrazole-4-carboxylic acid], for which the IC50 turned out to be 7600 nM.

Regarding `C[C@@H]1CN2c3c(cc4c(-n5cc(C(=O)N(C)C)cn5)noc4c3F)CC3(C(=O)NC(=O)NC3=O)[C@H]2[C@H](C)O1` (relative stereo) [Example 187, 1-[(2R,4S,4aS)-rel-11-fluoro-2,4-dimethyl-2′,4′,6′-trioxo-1,1′,2,3′,4,4′,4a,6′-octahydro-2′H,6H-spiro[1,4-oxazino[4,3-a][1,2]oxazolo[4,5-g]quinoline-5,5′-pyrimidin]-8-yl]-N,N-dimethyl-1H-pyrazole-4-carboxamide], the 50% inhibitory concentration (IC50) turned out to be 3300 nM.

For the compound `CNC(=O)c1cnn(-c2noc3c(F)c4c(cc23)CC2(C(=O)NC(=O)NC2=O)[C@H]2[C@H](C)O[C@H](C)CN42)c1` (relative stereo) [Example 188, 1-[(2R,4S,4aS)-rel-11-fluoro-2,4-dimethyl-2′,4′,6′-trioxo-1,1′,2,3′,4,4′,4a,6′-octahydro-2′H,6H-spiro[1,4-oxazino[4,3-a][1,2]oxazolo[4,5-g]quinoline-5,5′-pyrimidin]-8-yl]-N-methyl-1H-pyrazole-4-carboxamide], the half-inhibitory concentration (IC50) came out at 2700 nM.

Turning to `C[C@@H]1CN2c3c(cc4c(-n5cc(C(N)=O)cn5)noc4c3F)CC3(C(=O)NC(=O)NC3=O)[C@H]2[C@H](C)O1` (relative stereo) [Example 189, 1-[(2R,4S,4aS)-rel-11-fluoro-2,4-dimethyl-2′,4′,6′-trioxo-1,1′,2,3′,4,4′,4a,6′-octahydro-2′H,6H-spiro[1,4-oxazino[4,3-a][1,2]oxazolo[4,5-g]quinoline-5,5′-pyrimidin]-8-yl]-1H-pyrazole-4-carboxamide], the IC50 stood at 2200 nM.

For `C[C@@H]1CN2c3c(cc4c(-n5cc(CO)cn5)noc4c3F)CC3(C(=O)NC(=O)NC3=O)[C@H]2[C@H](C)O1` (relative stereo) [Example 190, (2R,4S,4aS)-rel-11-fluoro-8-[4-(hydroxymethyl)-1H-pyrazol-1-yl]-2,4-dimethyl-1,2,4,4a-tetrahydro-2′H,6H-spiro[1,4-oxazino[4,3-a][1,2]oxazolo[4,5-g]quinoline-5,5′-pyrimidine]-2′,4′,6′(1′H,3′H)-trione], the half-maximal inhibitory concentration (IC50) was found to be 2100 nM.
